Laboratory results: patent US11707511B2, “Vaccine compositions and methods of using the same” (The Board of Supervisors of Louisiana State University and …, priority 2017, dated 2023)

test system: C. albicans 3153A; experiment: Passive transfer of mAbs or mAb cocktails i.p. before lethal i.v. challenge, mouse model of human disseminated candidiasis; assay type: in vivo, Candida albicans; details: Table 14; mAb removed by absorption with Candida cells before transfer
Method: Passive transfer of MAbs by intraperitoneal (i.p.) route. The preventive effect of peptide-specific mAbs listed in Table 3 and Table 4 in naïve mice was examined by passive transfer experiments. […] For testing, mice received 0.5 ml of each mAb or 1 ml of two mAbs in combination (0.5 ml of each) intraperitoneally. […] The negative control materials tested in mice were single mAb or DPBS. Control mice received 0.5 ml of the DPBS diluents or single mAb treatment. For each condition, 6- to 8-week-old female BALB/c mice (NCI) were given 0.5 ml of test mAb, or 1 ml two mAb cocktails or control materials intraperitoneally, followed 4 h later by 0.1 ml intravenously of defined lethal dose of yeast cells per milliliter of DPBS. Mice were divided into groups with five mice each and three independent experiments were carried out. In some experiments, mice were given the same dose of mAbs or control materials on every other day post-challenge for two weeks, as compared to the protective efficacy of mAb in combinations. All mice were sacrificed on day 50. For animal groups that were challenged non-albicans candida species, determined optimal challenge doses were applied for each candida strain.
The hybridoma clones that produce the universal peptide specific mAbs listed above were generated from mice vaccinated with peptide-pulsed dendritic cell (DC) preparation as described previously (6). The isotype of mAb was determined with a Mouse Monoclonal Antibody Isotyping Kit (Pierce, USA). […] In detail, BALB/c mice were given an i.p dose of each mAb four hours before hematogenous challenged with a lethal dose of C. albicans3153A cells. […] Importantly, passive protection was prevented by removal of the mAbs by absorption with Candida cells before transfer, which provided strong additional evidence for the protection being due to the mAb.
The three cell wall proteins were selected because of expression during human candidiasis and cell wall association, and included fructose-bisphosphate aldolase (Fba); methyltetrahydropteroyltriglutamate-homocysteine methyltransferase (Met6); hyphal wall protein-1 (Hwp1). The hybridoma clones listed at Table 5, which produce the peptide specific mAbs, were generated from mice vaccinated with peptide-pulsed dendritic cell (DC) preparation as described previously (6). The isotype of mAb was determined with a Mouse Monoclonal Antibody Isotyping Kit (Pierce, USA). […] Importantly, passive protection was prevented by removal of the mAbs by absorption with Candida cells before transfer, which provided strong additional evidence for the protection being due to the mAb).
The preventive effect of each universal peptide-specific mAb was examined by passive transfer experiments. […] For testing, 5 mice of each tested group received 0.5 ml of each mAb intraperitoneally. The negative control materials tested in mice were mAbs absorbed with C. albicans yeast cells (3153A) and DPBS. Control mice received 0.5 ml of the DPBS diluents or adsorbed mAb solution. For each condition, 6- to 8-week-old female BALB/c mice (NCI) were given 0.5 ml of test mAb, or control materials intraperitoneally, followed 4 h later by 0.1 ml intravenously of a suspension containing lethal dose of Candida cells per milliliter of DPBS. Mice were divided into groups with five mice each and three independent experiments were carried out. We have developed neutropenic murine models of disseminated infection by C. glabrata, C. tropicalis and C. parapsilosis. To induce neutropenia, naïve mice received a 200 mg/kg dose of cyclophosphamide (CY) by i.p. on day −3. Prolonged neutropenia were maintained for 30-50 days by giving each animal a 150 mg/kg dose of CY by i.p. every 10 days after infection.

| Molecule | Protection of adsorbed mAb |
| --- | --- |
| 2D5F7: IgG2b mAb of hybridoma 2D5F7, specific for Fba peptide; VH SEQ ID NO: 68, VL SEQ ID NO: 70 (antibody, V domains shown) VH: MERHWIFLFLLSVTAGVHSQVQLQQSAAELARPGASVKMSCKASGYTFSSYTMHWVKQRPGQGLEWIGYINPSSGYTDYNQKFKDKTTLTADKSSSTAYMQLSSLTSEDSAVYYCARLYDNYDYYAMDYWGQGTSVTVSS VL: MDSQAQVLILLLLWVSGTCGDIVMSQSPSSLAVSAGEKVTMSCKSSQSLLNSRIRKNYLAWYQQKPGQSPKLLIYWASTRESGVPDRFTGSGSGTDFTLTISSVQADDLAVYYCKQSYNLLTFGAGTKLELK | None |

same assay, conditions: Table 14; single mAb, C. albicans

| Molecule | Protection | Protection (grade word) |
| --- | --- | --- |
| 2D5F7: IgG2b mAb of hybridoma 2D5F7, specific for Fba peptide; VH SEQ ID NO: 68, VL SEQ ID NO: 70 (antibody, V domains shown) VH: MERHWIFLFLLSVTAGVHSQVQLQQSAAELARPGASVKMSCKASGYTFSSYTMHWVKQRPGQGLEWIGYINPSSGYTDYNQKFKDKTTLTADKSSSTAYMQLSSLTSEDSAVYYCARLYDNYDYYAMDYWGQGTSVTVSS VL: MDSQAQVLILLLLWVSGTCGDIVMSQSPSSLAVSAGEKVTMSCKSSQSLLNSRIRKNYLAWYQQKPGQSPKLLIYWASTRESGVPDRFTGSGSGTDFTLTISSVQADDLAVYYCKQSYNLLTFGAGTKLELK | (90-100%) | High |

test system: C. albicans; experiment: Universal double chimeric peptide vaccines, protection against candidiasis in mouse model; assay type: in vivo, Candida albicans; details: Table 11; double peptide vaccine formula feasible for human use
From the text: Each chimeric peptide conjugate comprises two peptide epitopes.

| Molecule | Protection against Candidiasis in mouse model | Protection against Candidiasis in mouse model (grade word) |
| --- | --- | --- |
| PADRE-GPV-M1-GPSL-GPV-P1: double peptide vaccine 1; amidation (C-terminus) and acetylation (N-terminus) (Ac-AKFVAAWTLKAAACFWVNPDCGLKTRGPSLCAILGGSKVSDKI-NH2; cysteine pairing not given here) | 60-90% | High |
| PADRE-GPV-M2-KK-GPV-P1: double peptide vaccine 10; amidation (C-terminus) and acetylation (N-terminus) (Ac-AKFVAAWTLKAAACTTTIGSFPQTKDIRKKCAILGGSKVSDKI-NH2; cysteine pairing not given here) | 20-40% | Low |
| RGD-GPV-P3-KK-GPV-M2: double peptide vaccine 4; amidation (C-terminus) and acetylation (N-terminus) (Ac-RGDCIVIIGGGDTATVAKKKKCTTTIGSFPQTKDIR-NH2; cysteine pairing not given here) | 70-90% | High |
| RGD-PADRE-GPV-M2-KK-GPV-P3: double peptide vaccine 11; amidation (C-terminus) and acetylation (N-terminus) (Ac-RGDAKFVAAWTLKAAACTTTIGSFPQTKDIRKKCIVIIGGGDTATVAKK-NH2; cysteine pairing not given here) | 80-100% | High |
| RGD-TT830-844-KK-GPV-P3-KK-GPV-M1: double peptide vaccine 8; amidation (C-terminus) and acetylation (N-terminus) (Ac-RGDQYIKANSKFIGITEKKCIVIIGGGDTATVAKKKKCFWVNPDCGLKTR-NH2; cysteine pairing not given here) | 80-100% | High |
| RGD-TT947-967-KK-GPV-P3-KK-GPV-M1: double peptide vaccine 9; amidation (C-terminus) and acetylation (N-terminus) (Ac-RGDFNNFTVSFWLRVPKVSASHLEKKCIVIIGGGDTATVAKKKKCFWVNPDCGLKTR-NH2; cysteine pairing not given here) | 20-40% | Low |
| TT830-844-GPSL-GPV-M1-GPSL-GPV-P1: double peptide vaccine 2; amidation (C-terminus) and acetylation (N-terminus) (Ac-QYIKANSKFIGITEGPSLCFWVNPDCGLKTRGPSLCAILGGSKVSDKI-NH2; cysteine pairing not given here) | 40-60% | medium |
| TT830-844-KK-GPV-P3-KK-GPV-M2: double peptide vaccine 6; amidation (C-terminus) and acetylation (N-terminus) (Ac-QYIKANSKFIGITEKKCIVIIGGGDTATVAKKKKCTTTIGSFPQTKDIR-NH2; cysteine pairing not given here) | 40-60% | medium |
| TT947-967-GPSL-GPV-M1-GPSL-GPV-P1: double peptide vaccine 3; amidation (C-terminus) and acetylation (N-terminus) (Ac-FNNFTVSFWLRVPKVSASHLEGPSLCFWVNPDCGLKTRGPSLCAILGGSKVSDKI-NH2; cysteine pairing not given here) | 40-60% | medium |
| TT947-967-KK-GPV-P3-KK-GPV-M1: double peptide vaccine 7; amidation (C-terminus) and acetylation (N-terminus) (Ac-FNNFTVSFWLRVPKVSASHLEKKCIVIIGGGDTATVAKKKKCFWVNPDCGLKTR-NH2; cysteine pairing not given here) | 70-90% | High |
